# Measurements as given in patent publication US8663646B2, “P53 peptide vaccine” (priority 2007, dated 2014).
# Like-named read-outs stand apart in the source and are kept apart here. Where no end group is shown, it is not given here.
# Legend:
# [1] = molecular target: T1, 20S immuno-proteasomes from human B-LCL cell line (JY) (Homo sapiens, UniProt P28062+P28065+P40306); conditions: PRAME peptides (Kessler J H et al 2001); cited from earlier work
# T1 construct: purified from a mouse B-cell line (RMA) and a human B-LCL cell line (JY); endogenous in cells; host or cells: B-LCL JY cells; 20S proteasome purified from them
# [2] = test system: proteasome; assay: Proteasome processing, summarised over proteasome types (Table 5); type: biochemical; conditions: 30 residue long precursor peptides
# Method: (§1) In the context of the invention, “being inefficiently processed by a proteasome” preferably means that within the first hour of digestion by a proteasome less than 1% of total digested peptide is found. The processing by a proteasome is preferably assessed by incubating a purified proteasome, more preferably a human proteasome with a peptide comprising the potential CTL epitope (30 amino acid length approximately) in a proteasome digestion buffer during at least one hour at 37° C. The reaction is subsequently stopped by adding trifluoroacetic acid. Analysis of the digested peptides is performed with electrospray ionization mass spectrometry (see example 1). Even more preferably, the human proteasome is an immunoproteasome from B-LCL JY cells (Kessler J H et al. 2001).
# (§2) 20S immuno-proteasomes were purified from a mouse B-cell line (RMA) and a human B-LCL cell line (JY) and 20S household proteasomes were purified from human tumor cell line (HeLa) as described (Kessler J H et al 2001). To assess kinetics, digestions were performed with different incubation periods as indicated. Briefly, peptides containing the (potential) CTL epitopes (30 mers, 20 μg) were incubated with 1 μg of purified proteasome at 37° C. for 1 h, 4 h and 24 h in 300 μl proteasome digestion buffer, trifluoroacetic acid (30 μl) was added to stop the digestion and samples were stored at −20° C. before mass spectrometric analysis. Electrospray ionization mass spectrometry was performed on a hybrid quadrupole time-of-flight mass spectromter, a Q-TOF (Micromass), equipped with an on-line nanoelectrospray interface with an approximate flow rate of […] as described (Kessler J H et al 2001). The peaks in the mass spectrum were searched in the digested precursor peptide using the Biolynx/proteins software (Micromass) supplied with the mass spectrometer. The intensity of the peaks in the mass spectra was used to establish the relative amounts of peptides generated after proteasome digestion. The relative amounts of the peptides are given as a percentage of the total amount of peptide digested by the proteasome at the indicated incubation time. Major cleavage sites are defined as more than >1% of total digested peptide within the first hour.
# [3] = molecular target: T2, 20S immuno-proteasomes from mouse B-cell line (RMA) (Mus musculus, UniProt O35955+P28063+P28076); assay: In vitro proteasome mediated digestion of 30-mers, mass spectrometry, immunoproteasome RMA; type: biochemical; conditions: 30 residue long precursor peptides
# T2 construct: 20S immuno-proteasomes were purified from a mouse B-cell line (RMA); endogenous in cells; host or cells: RMA cells; 20S proteasome purified from them
# How it was run: (§3)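 30-mer peptides (20 μg) digested with 1 μg purified 20S proteasome (JY or RMA immunoproteasome, HeLa household proteasome) at 37° C for 1, 4 and 24 h, stopped with TFA. Nano-ESI Q-TOF MS; fragments quantified by peak intensity as percent of total digested peptide per time point; major cleavage site >1% within first hour.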
# [4] = molecular target: T1, 20S immuno-proteasomes from human B-LCL cell line (JY); assay: In vitro proteasome mediated digestion of 30-mers, mass spectrometry, immunoproteasome JY; type: biochemical; conditions: 30 residue long precursor peptides
# How it was run: as §3
# [5] = molecular target: T3, 20S household proteasomes from human tumor cell line (HeLa) (Homo sapiens, UniProt P28072+P28074+Q99436); assay: In vitro proteasome mediated digestion of 30-mers, mass spectrometry, household proteasome HeLa; type: biochemical; conditions: 30 residue long precursor peptides
# T3 construct: 20S household proteasomes were purified from human tumor cell line (HeLa); endogenous in cells; host or cells: HeLa cells; 20S proteasome purified from them
# Method: as §1, §2
# [6] = molecular target: T4, HLA-A*0201 (Homo sapiens, UniProt P04439, D140Y/D185E/D98H/E176V/E277Q/G131W/G231S/I119V/I121R/I166T/I218V/L300P/L318F/N151K/N90K/P208A/P217A/Q86G/Q94H/R138H/R169H/T345S); conditions: binding capacity previously determined, read-out: Peptide Binding Affinity; cited from earlier work
# [7] = molecular target: T4, HLA-A*0201; assay: Peptide stabilization for HLA-A*0201; type: binding; conditions: for Peptide Binding Stability: HLA-A*0201, p53 peptides
# [8] = molecular target: T5, HLA-A*0101 (Homo sapiens, UniProt P04439, A114D/A174V/A182V/D101N/D185E/E176A/E190D/L180R/Q94H/R68K/S129P/T187R/V100A/V91M/W191G); assay: Competition based cellular binding assay, HLA-A*0101 (B-cell line CAA)
# T5 construct: B-cell lines used are: CAA (A*0101), EKR (A*0301), BVR (A*1101), VIJF (A*2401); endogenous in cells; host or cells: B-cell line CAA
# [9] = molecular target: T5, HLA-A*0101; assay: Stability of peptide-HLA complex, binding at 4° C. and 20° C., HLA-A*0101; conditions: for HLA binding Stability (Table 5): HLA type A1; for Peptide Binding Stability: HLA-A*0101, IC50 at 20° C. vs 4° C.
# [10] = test system: HLA-A*2401; assay: Competition based cellular binding assay, HLA-A*2401 (B-cell line VIJF); set-up: species or system human; conditions: HLA-A*2401, IC50 category
# [11] = test system: HLA-A*2401; assay: Stability of peptide-HLA complex, binding at 4° C. and 20° C., HLA-A*2401; set-up: species or system human; conditions: HLA-A*2401; IC50 at 20° C. vs 4° C.
# Method: Stability of other peptide-HLA complexes was preferably determined as follows. […] Peptides of >50% of the initial complexes was lost within 2 hours were considered unstable. […] The rest was designated as unstable peptide binding.
# Peptides 8-11 residues in length were selected based on typical anchor residues for HLA-A*0101, A*0301, A*1101 and HLA-A*2401 (Rammensee H G et al). The capacity of peptides to bind was tested in a competition based cellular binding assay as previously described (van der Burg S H et al 1995). FL-labeled reference peptides were synthesized as Cys-derivative (van der Burg S H et al 1995). Fluorescence labeled reference peptides used were: YLEPAC(FL)AK (SEQ ID NO: 87) (HLA-A*0101) and KVFPC(FL)ALINK (SEQ ID NO: 88) (HLA-A*1101) (Sette A et al), KVFPC(FL)ALINK (SEQ ID NO: 89) (HLAA*0301) (van der Burg S H et al 1995) and RYLKC(FL)QQLL (SEQ ID NO: 90) (A*2401) (Dai L C et al). B-cell lines used are: CAA (A*0101), EKR (A*0301), BVR (A*1101), VIJF (A*2401). The relative binding capacity of the peptides is expressed as the peptide concentration to inhibit 50% (1050) of the binding of the reference peptide. […] Peptide stabilization for HLA-A*0201 was performed as previously described (van der Burg S H et al, 1996). Peptides of >50% of the initial complexes was lost within 2 hours were considered unstable. Stability of other peptide-HLA complexes was determined as follows. Peptide binding was performed at 4° C. and 20° C. and 1050 were determined. […] The rest was designated as unstable peptide binding.
# [12] = HLA-A*0101, IC50 category, read-out: Peptide Binding Affinity
compound,measurement,setting,value
SLYSFPEPEA [PRA 142-151],"Proteasomal Cleavage of C-terminus, IP (JY)",[1],+ (Major cleavage sites are defined as more than >1% of total digested peptide within the first hour)
CC(C)C[C@H](NC(=O)[C@@H](N)CC(C)C)C(=O)NCC(=O)N[C@@H](CCCNC(=N)N)C(=O)N[C@@H](CC(N)=O)C(=O)N[C@@H](CO)C(=O)N[C@@H](Cc1ccccc1)C(=O)N[C@@H](CCC(=O)O)C(=O)N[C@H](C(=O)O)C(C)C [p53 264-272],"generation / processing by household and immunoproteasomes, in words",[2],not well processed
CC(C)C[C@H](NC(=O)[C@@H](NC(=O)[C@H](Cc1ccccc1)NC(=O)[C@H](Cc1ccc(O)cc1)NC(=O)[C@H](CCC(=O)O)NC(=O)CNC(=O)[C@H](CC(=O)O)NC(=O)[C@H](CC(C)C)NC(=O)[C@@H]1CCCN1)[C@@H](C)O)C(=O)O [p53 322-330],"Proteasomal Cleavage of C-terminus, IP (RMA)",[3],+ (Major cleavage sites are defined as more than >1% of total digested peptide within the first hour)
same,"Proteasomal Cleavage of C-terminus, IP (JY)",[4],+ (Major cleavage sites are defined as more than >1% of total digested peptide within the first hour)
same,"Proteasomal Cleavage of C-terminus, HH (HeLa)",[5],+ (Major cleavage sites are defined as more than >1% of total digested peptide within the first hour)
same,IC50,[6],5 to 15 µM
SLLQHLIGL [PRA 425-433],"Proteasomal Cleavage of C-terminus, IP (JY)",[1],+ (Major cleavage sites are defined as more than >1% of total digested peptide within the first hour)
VLDGLDVLL [PRA 100-108],"Proteasomal Cleavage of C-terminus, IP (JY)",[1],+ (Major cleavage sites are defined as more than >1% of total digested peptide within the first hour)
CC(C)[C@H](NC(=O)[C@H](CCCNC(=N)N)NC(=O)[C@@H](NC(=O)CNC(=O)[C@@H]1CCCN1C(=O)[C@@H]1CCCN1C(=O)[C@@H]1CCCN1C(=O)[C@@H](NC(=O)[C@@H](N)CO)[C@@H](C)O)[C@@H](C)O)C(=O)O [p53 149-157],"capacity to form stable peptide-HLA-A*0201 complexes, in words",[7],weak
same,HLA binding Stability (Table 5),"[7]; HLA type A2, class symbol",− (Peptides of >50% of the initial complexes was lost within 2 hours were considered unstable)
same,Peptide Binding Stability,[7],<2 h
same,"Proteasomal Cleavage of C-terminus, IP (RMA)",[3],+ (Major cleavage sites are defined as more than >1% of total digested peptide within the first hour)
same,"Proteasomal Cleavage of C-terminus, IP (JY)",[4],+ (Major cleavage sites are defined as more than >1% of total digested peptide within the first hour)
same,"Proteasomal Cleavage of C-terminus, HH (HeLa)",[5],+ (Major cleavage sites are defined as more than >1% of total digested peptide within the first hour)
same,"generation / processing by household and immunoproteasomes, in words",[2],efficiently generated
CC[C@H](C)[C@H](NC(=O)[C@@H](NC(=O)[C@@H](NC(=O)[C@@H](N)CS)[C@@H](C)O)[C@@H](C)O)C(=O)N[C@@H](Cc1c[nH]cn1)C(=O)N[C@@H](Cc1ccc(O)cc1)C(=O)N[C@@H](CC(N)=O)C(=O)N[C@@H](Cc1ccc(O)cc1)C(=O)O [p53 229-236],IC50,"[8]; HLA type A1, read-out: HLA binding Affinity (Table 5)",15 to 50 µM
same,IC50,[8]; [12],5 to 15 µM
same,HLA binding Stability (Table 5),[9],− (The rest was designated as unstable peptide binding.)
same,Peptide Binding Stability,[9],− (The rest was designated as unstable peptide binding.)
ALYVDSLFFL [PRA 300-309],"Proteasomal Cleavage of C-terminus, IP (JY)",[1],+ (Major cleavage sites are defined as more than >1% of total digested peptide within the first hour)
CC[C@H](C)[C@H](NC(=O)[C@H](CC(C)C)NC(=O)[C@H](Cc1c[nH]cn1)NC(=O)[C@H](CCC(N)=O)NC(=O)[C@@H]1CCCN1C(=O)[C@@H]1CCCN1C(=O)[C@H](C)NC(=O)[C@H](CC(C)C)NC(=O)CN)C(=O)N[C@@H](CCCNC(=N)N)C(=O)N[C@H](C(=O)O)C(C)C [p53 187-197],"capacity to form stable peptide-HLA-A*0201 complexes, in words",[7],forms stable peptide-HLA complexes
same,Peptide Binding Stability,[7],6 h
same,"Proteasomal Cleavage of C-terminus, IP (RMA)",[3],+ (Major cleavage sites are defined as more than >1% of total digested peptide within the first hour)
same,"Proteasomal Cleavage of C-terminus, IP (JY)",[4],+ (Major cleavage sites are defined as more than >1% of total digested peptide within the first hour)
same,"Proteasomal Cleavage of C-terminus, HH (HeLa)",[5],+ (Major cleavage sites are defined as more than >1% of total digested peptide within the first hour)
same,"generation / processing by household and immunoproteasomes, in words",[2],efficiently generated
CSCC[C@H](NC(=O)[C@H](CCCCN)NC(=O)[C@H](CC(N)=O)NC(=O)[C@H](CC(C)C)NC(=O)[C@H](C)NC(=O)[C@@H]1CCCN1C(=O)[C@H](CO)NC(=O)[C@H](Cc1ccc(O)cc1)NC(=O)[C@@H](N)[C@@H](C)O)C(=O)N[C@@H](Cc1ccccc1)C(=O)O [p53 125-134],Peptide Binding Affinity,[10],high
same,IC50,[10]; read-out: Peptide Binding Affinity,< 5 µM
same,Peptide Binding Stability,[11],+ (Stable peptides displayed IC50 at 20 °C that deviated <2 times of the IC50 at 4° C.)
same,"generation / processing by household and immunoproteasomes, in words",[2],not/inefficiently processed
YLDDRNTFRH [p53 205-214],HLA binding Affinity (Table 5),[8]; HLA type A1,int
same,IC50,[8]; [12],5 to 15 µM
same,HLA binding Stability (Table 5),[9],+ (Stable peptides displayed IC50 at 20 °C that deviated <2 times of the IC50 at 4° C.)
same,Peptide Binding Stability,[9],+ (Stable peptides displayed IC50 at 20 °C that deviated <2 times of the IC50 at 4° C.)
